Measurements as given in patent US8828908B2, “Herbicidally active bicyclic 1,3-dione compounds” (Syngenta Limited, priority 2007, dated 2014).

What was measured:
Assay type in all cases: in vivo
[1] = system: Amaranthus retroflexus (AMARE); experiment: Example A pre-emergence herbicidal glasshouse test; conditions: 312 h, Rate 250 g/ha, evaluated after 13 days, 100=total damage to plant, 0=no damage to plant
Description: (§1) Seeds of a variety of test species were sown in standard soil in pots. After cultivation for one day (pre-emergence) or after 8 days cultivation (post-emergence) under controlled conditions in a glasshouse (at 24/16° C., day/night; 14 hours light; 65% humidity), the plants were sprayed with an aqueous spray solution derived from the formulation of the technical active ingredient in acetone/water (50:50) solution containing 0.5% Tween 20 (polyoxyethelyene sorbitan monolaurate, CAS RN 9005-64-5). The test plants were then grown in a glasshouse under controlled conditions in a glasshouse (at 24/16° C., day/night; 14 hours light; 65% humidity) and watered twice daily. After 13 days for pre and post-emergence, the test was evaluated (100=total damage to plant; 0=no damage to plant).
(§2) Alopecurus myosuroides (ALOMY), Avena fatua (AVEFA), Setaria faberi (SETFA), Echinochloa crus-galli (ECHCG), Solanum nigrum (SOLNI) and Amaranthus retroflexus (AMARE)

[2] = system: Alopecurus myosuroides (ALOMY); experiment: Example A pre-emergence herbicidal glasshouse test; conditions: 312 h, Rate 250 g/ha, evaluated after 13 days, 100=total damage to plant, 0=no damage to plant
Description: as §1, §2

[3] = system: Echinochloa crus-galli (ECHCG); experiment: Example A pre-emergence herbicidal glasshouse test; conditions: 312 h, Rate 250 g/ha, evaluated after 13 days, 100=total damage to plant, 0=no damage to plant
Description: as §1, §2

Avena fatua (AVEFA) [4] = experiment: Example A pre-emergence herbicidal glasshouse test; conditions: 312 h, Rate 250 g/ha, evaluated after 13 days, 100=total damage to plant, 0=no damage to plant
Description: as §1, §2

Setaria faberi (SETFA) [5] = experiment: Example A pre-emergence herbicidal glasshouse test; conditions: 312 h, Rate 250 g/ha, evaluated after 13 days, 100=total damage to plant, 0=no damage to plant
Description: as §1, §2

[6] = system: Digitaria sanguinalis (DIGSA); experiment: Example B pre-emergence herbicidal greenhouse test; conditions: 480 h, evaluated after 20 days, 100=total damage to plant, 0=no damage
Description: (§3) Seeds of a variety of test species were sown in standard soil in pots. After cultivation for one day (pre-emergence) or after 10 days cultivation (post-emergence) under controlled conditions in a glasshouse, the plants were sprayed with an aqueous spray solution derived from the formulation of the technical active ingredient in 0.6 ml acetone and 45 ml formulation solution containing 10.6% Emulsogen EL (Registry number 61791-12-6), 42.2% N-methylpyrrolidone, 42.2% dipropylene glycol monomethyl ether (Registry number 34590-94-8) and 0.2% X-77 (Registry number 11097-66-8). The test plants were then grown in a greenhouse under optimum conditions until, 15 days later for post-emergence and 20 days for pre-emergence, the test was evaluated (100=total damage to plant; 0=no damage to plant).
(§4) Alopecurus myosuroides (ALOMY), Avena fatua (AVEFA), Lolium perenne (LOLPE), Setaria faberi (SETFA), Digitaria sanguinalis (DIGSA), Echinochloa crus-galli (ECHCG)

[7] = system: Alopecurus myosuroides (ALOMY); experiment: Example B pre-emergence herbicidal greenhouse test; conditions: 480 h, evaluated after 20 days, 100=total damage to plant, 0=no damage
Description: as §3, §4

Lolium perenne (LOLPE) [8] = experiment: Example B pre-emergence herbicidal greenhouse test; conditions: 480 h, evaluated after 20 days, 100=total damage to plant, 0=no damage
Description: as §3, §4

[9] = system: Echinochloa crus-galli (ECHCG); experiment: Example B pre-emergence herbicidal greenhouse test; conditions: 480 h, evaluated after 20 days, 100=total damage to plant, 0=no damage
Description: as §3, §4

Avena fatua (AVEFA) [10] = experiment: Example B pre-emergence herbicidal greenhouse test; conditions: 480 h, evaluated after 20 days, 100=total damage to plant, 0=no damage
Description: as §3, §4

Setaria faberi (SETFA) [11] = experiment: Example B pre-emergence herbicidal greenhouse test; conditions: 480 h, evaluated after 20 days, 100=total damage to plant, 0=no damage
Description: as §3, §4

[12] = system: Amaranthus retroflexus (AMARE); experiment: Example A post-emergence herbicidal glasshouse test; conditions: 312 h, evaluated after 13 days, 100=total damage to plant, 0=no damage
Description: as §1, §2

[13] = system: Alopecurus myosuroides (ALOMY); experiment: as above; conditions: 312 h, evaluated after 13 days, 100=total damage to plant, 0=no damage
Description: as §1, §2

[14] = system: Echinochloa crus-galli (ECHCG); experiment: as above; conditions: 312 h, evaluated after 13 days, 100=total damage to plant, 0=no damage
Description: as §1, §2

Avena fatua (AVEFA) [15] = experiment: as above; conditions: 312 h, evaluated after 13 days, 100=total damage to plant, 0=no damage
Description: as §1, §2

Setaria faberi (SETFA) [16] = experiment: as above; conditions: 312 h, evaluated after 13 days, 100=total damage to plant, 0=no damage
Description: as §1, §2

[17] = system: Digitaria sanguinalis (DIGSA); experiment: Example B post-emergence herbicidal greenhouse test; conditions: 360 h, evaluated after 15 days, 100=total damage to plant, 0=no damage
Description: as §3, §4

[18] = system: Alopecurus myosuroides (ALOMY); experiment: as above; conditions: 360 h, evaluated after 15 days, 100=total damage to plant, 0=no damage
Description: as §3, §4

Lolium perenne (LOLPE) [19] = experiment: as above; conditions: 360 h, evaluated after 15 days, 100=total damage to plant, 0=no damage
Description: as §3, §4

[20] = system: Echinochloa crus-galli (ECHCG); experiment: as above; conditions: 360 h, evaluated after 15 days, 100=total damage to plant, 0=no damage
Description: as §3, §4

Avena fatua (AVEFA) [21] = experiment: as above; conditions: 360 h, evaluated after 15 days, 100=total damage to plant, 0=no damage
Description: as §3, §4

Setaria faberi (SETFA) [22] = experiment: as above; conditions: 360 h, evaluated after 15 days, 100=total damage to plant, 0=no damage
Description: as §3, §4

Compound | pest or weed control at 250 g/ha [1] | pest or weed control at 250 g/ha [2] | pest or weed control at 250 g/ha [3] | pest or weed control at 250 g/ha (Avena fatua (AVEFA) [4]) | pest or weed control at 250 g/ha (Setaria faberi (SETFA) [5]) | pest or weed control at 250 g/ha [6] | pest or weed control at 250 g/ha [7] | pest or weed control at 250 g/ha (Lolium perenne (LOLPE) [8]) | pest or weed control at 250 g/ha [9] | pest or weed control at 250 g/ha (Avena fatua (AVEFA) [10]) | pest or weed control at 250 g/ha (Setaria faberi (SETFA) [11]) | pest or weed control at 250 g/ha [12] | pest or weed control at 250 g/ha [13] | pest or weed control at 250 g/ha [14] | pest or weed control at 125 g/ha [17] | pest or weed control at 125 g/ha [18] | pest or weed control at 125 g/ha (Lolium perenne (LOLPE) [19]) | pest or weed control at 125 g/ha [20] | pest or weed control at 125 g/ha (Avena fatua (AVEFA) [21]) | pest or weed control at 125 g/ha (Setaria faberi (SETFA) [22]) | other results
CCc1ccc(-c2ccc(Cl)cc2Cl)cc1C1=C(OC(=O)OC)[C@H]2CC[C@H](C2)C1=O (single isomer, unassigned) [Compound P4, carbonic acid 3-(2′,4′-dichloro-4-ethylbiphen-3-yl)-4-oxo-bicyclo[3.2.1]oct-2-en-2-yl ester methyl ester] | 40% | 80% | 90% | 50% | 100% | 100% | 90% | 90% | 100% | 70% | 100% | 0% | 100% | 100% | 100% | 100% | 90% | 100% | 80% | 100% | pest or weed control at 250 g/ha (Avena fatua (AVEFA) [15]): 90%; pest or weed control at 250 g/ha (Setaria faberi (SETFA) [16]): 100%
CCc1ccc(-c2ccc(Cl)cc2Cl)cc1C1=C(OC(C)=O)[C@H]2CC[C@H](C2)C1=O (single isomer, unassigned) [Compound P7] | 0% | 40% | 100% | 90% | 100% | 80% | 70% | 70% | 50% | 30% | 80% | 0% | 90% | 100% | 90% | 60% | 70% | 100% | 80% | 100% | pest or weed control at 250 g/ha (Avena fatua (AVEFA) [15]): 100%; pest or weed control at 250 g/ha (Setaria faberi (SETFA) [16]): 100%
CCc1ccc(-c2ccc(Cl)cc2C)cc1C1=C(O)[C@H]2CC[C@H](C2)C1=O (single isomer, unassigned) [Compound T33] | 0% | 60% | 90% | 20% | 90% | 70% | 60% | 70% | 70% | 20% | 70% | 0% | 60% | 100% | 60% | 60% | 20% | 100% | 70% | 100% | pest or weed control at 250 g/ha (Avena fatua (AVEFA) [15]): 60%; pest or weed control at 250 g/ha (Setaria faberi (SETFA) [16]): 100%
CCc1ccc(-c2ccc(Cl)c(C#N)c2)cc1C1=C(O)[C@H]2CC[C@H](C2)C1=O (single isomer, unassigned) [Compound T34] | 0% | 60% | 70% | 0% | 100% | 90% | 40% | 40% | 90% | 40% | 90% | 0% | 70% | 100% | 40% | 0% | 0% | 80% | 10% | 40% | pest or weed control at 250 g/ha (Avena fatua (AVEFA) [15]): 70%; pest or weed control at 250 g/ha (Setaria faberi (SETFA) [16]): 90%
CCc1ccc(-c2ccc(Cl)c(Cl)c2)cc1C1=C(O)[C@H]2CC[C@H](C2)C1=O (single isomer, unassigned) [Compound T35] | 0% | 20% | 90% | 20% | 90% | 70% | 10% | 20% | 50% | 30% | 40% | 0% | 40% | 100% | 70% | 0% | 20% | 80% | 10% | 70% | pest or weed control at 250 g/ha (Avena fatua (AVEFA) [15]): 50%; pest or weed control at 250 g/ha (Setaria faberi (SETFA) [16]): 100%
CCc1ccc(-c2ccc(Cl)c(F)c2)cc1C1=C(O)[C@H]2CC[C@H](C2)C1=O (single isomer, unassigned) [Compound T36] | 0% | 70% | 100% | 50% | 100% | 100% | 70% | 90% | 100% | 60% | 90% | 0% | 90% | 100% | 100% | 80% | 30% | 100% | 100% | 100% | pest or weed control at 250 g/ha (Avena fatua (AVEFA) [15]): 100%; pest or weed control at 250 g/ha (Setaria faberi (SETFA) [16]): 100%
CCc1ccc(-c2ccc(C)cc2)cc1C1=C(O)[C@H]2CC[C@H](C2)C1=O [Compound T5] |  |  |  |  |  | 10% | 0% | 0% | 100% | 10% | 0% |  |  |  | 50% | 0% | 0% | 80% | 0% | 70% | 
Cc1cc(-c2ccccc2)cc(C)c1C1=C(O)[C@H]2CC[C@H](C2)C1=O [Compound T6, 3-(3,5-dimethylbiphen-4-yl)bicyclo[3.2.1]-2,4-dione] |  |  |  |  |  | 100% | 60% | 50% | 90% | 0% | 80% |  |  |  | 10% | 20% | 10% | 30% | 10% | 0% | 
